Laboratory results taken from paper PMC7413254 (Nature Communications, 2020).
Like-named read-outs stand apart in the source and are kept apart here.

What was measured:
PfCRT^Dd2 [1] = biological target: T1, PfCRT^Dd2 (Plasmodium falciparum, UniProt Q9N623, A220S/I356T/K76T/M74I/N326S/N75E/Q271E/R371I); experiment: cell-based; assay type: cell-based; settings: for PfCRT-mediated [3H]CQ transport, trans-stimulation (% PfCRTDd2 control): normalised to oocyte type control; for [3H]CQ transport (% PfCRTDd2 control), trans-stimulation, PfCRTDd2: PfCRT-mediated component (background subtracted), mean ± SEM, SEM
T1 sequence (Q9N623 whole entry A220S/I356T/K76T/M74I/N326S/N75E/Q271E/R371I): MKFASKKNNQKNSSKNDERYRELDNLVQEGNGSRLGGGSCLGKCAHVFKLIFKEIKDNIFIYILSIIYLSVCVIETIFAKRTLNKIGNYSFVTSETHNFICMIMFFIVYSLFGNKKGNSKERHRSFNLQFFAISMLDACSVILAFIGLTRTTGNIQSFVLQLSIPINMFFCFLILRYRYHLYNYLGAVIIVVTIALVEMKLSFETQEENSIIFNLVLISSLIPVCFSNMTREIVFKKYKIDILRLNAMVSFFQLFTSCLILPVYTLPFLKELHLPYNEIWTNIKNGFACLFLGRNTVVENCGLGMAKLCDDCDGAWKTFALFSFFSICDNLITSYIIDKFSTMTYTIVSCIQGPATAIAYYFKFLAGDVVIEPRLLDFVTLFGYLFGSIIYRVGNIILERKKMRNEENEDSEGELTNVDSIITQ
Summary of the method: (§1)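 Transport measured in Xenopus oocytes expressing the transporters, 1.5 h at 27.5 °C in ND96 pH 5.5 unless noted. For trans-stimulation, VF-6 injected in 25 nL ND96 at pH 5.0–7.0 or Na^+-free (choline) buffer; intracellular levels based on ~400 nL oocyte volume. Ten oocytes per treatment, ≥4 experiments.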

PfCRT^Ecu1110 [2] = biological target: T2, PfCRT^Ecu1110 (Plasmodium falciparum, UniProt Q9N623, A220S/I356L/K76T/N326D); experiment: cell-based; assay type: cell-based; settings: for Uptake of [3H]CQ (% PfCRTEcu1110 control), trans-stimulation / PfCRT-mediated [3H]CQ transport, trans-stimulation (% PfCRTEcu1110 control): PfCRTEcu1110 oocytes; for Uptake of [3H]CQ (% PfCRTEcu1110 control), trans-stimulation: total [3H]CQ transport, normalised to the oocyte type control; for PfCRT-mediated [3H]CQ transport, trans-stimulation (% PfCRTEcu1110 control): normalised to oocyte type control; for [3H]CQ transport (% PfCRTDd2 control), trans-stimulation, PfCRTEcu1110: PfCRT-mediated component (background subtracted), sheet title says normalised to PfCRTDd2 control, mean ± SEM, SEM
T2 sequence (Q9N623 whole entry A220S/I356L/K76T/N326D): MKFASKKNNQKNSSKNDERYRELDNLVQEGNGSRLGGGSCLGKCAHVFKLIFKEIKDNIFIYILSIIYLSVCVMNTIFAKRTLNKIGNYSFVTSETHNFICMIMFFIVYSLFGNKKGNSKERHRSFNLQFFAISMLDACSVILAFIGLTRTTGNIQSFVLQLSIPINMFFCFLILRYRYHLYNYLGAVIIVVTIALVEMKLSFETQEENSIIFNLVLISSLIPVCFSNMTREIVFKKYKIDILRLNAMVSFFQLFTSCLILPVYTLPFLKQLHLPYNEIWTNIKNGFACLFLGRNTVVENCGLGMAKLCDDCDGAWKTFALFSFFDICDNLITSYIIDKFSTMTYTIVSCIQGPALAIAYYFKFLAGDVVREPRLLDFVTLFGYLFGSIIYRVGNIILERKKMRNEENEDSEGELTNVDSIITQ
Summary of the method: as §1

PfCRT^3D7 [3] = biological target: T3, PfCRT^3D7 (Plasmodium falciparum, UniProt Q8IBZ9); experiment: cell-based; assay type: cell-based; settings: PfCRT3D7 oocytes; for Uptake of [3H]CQ (% PfCRT3D7 control), trans-stimulation: total [3H]CQ transport, normalised to the oocyte type control; for PfCRT-mediated [3H]CQ transport, trans-stimulation (% PfCRT3D7 control): normalised to oocyte type control
T3 sequence (Q8IBZ9 59-398): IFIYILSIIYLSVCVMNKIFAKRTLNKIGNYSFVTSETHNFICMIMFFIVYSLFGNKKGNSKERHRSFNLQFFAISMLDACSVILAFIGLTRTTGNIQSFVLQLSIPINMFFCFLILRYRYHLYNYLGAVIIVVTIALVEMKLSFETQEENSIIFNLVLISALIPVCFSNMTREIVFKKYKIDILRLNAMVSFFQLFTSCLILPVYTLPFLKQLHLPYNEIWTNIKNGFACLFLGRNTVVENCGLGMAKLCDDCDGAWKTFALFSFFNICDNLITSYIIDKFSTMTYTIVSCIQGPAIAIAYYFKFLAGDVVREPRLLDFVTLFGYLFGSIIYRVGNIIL
Summary of the method: as §1

PfNT1 = biological target: T4, PfNT1 (Plasmodium falciparum, UniProt Q8IDM6); experiment: cell-based; assay type: cell-based; settings: PfNT1 oocytes, total [3H]CQ transport, normalised to the oocyte type control
T4 construct: expressed in transfected cells; host or cells: Xenopus laevis oocytes (stage V-VI), cRNA-injected
T4 sequence (Q8IDM6 whole entry): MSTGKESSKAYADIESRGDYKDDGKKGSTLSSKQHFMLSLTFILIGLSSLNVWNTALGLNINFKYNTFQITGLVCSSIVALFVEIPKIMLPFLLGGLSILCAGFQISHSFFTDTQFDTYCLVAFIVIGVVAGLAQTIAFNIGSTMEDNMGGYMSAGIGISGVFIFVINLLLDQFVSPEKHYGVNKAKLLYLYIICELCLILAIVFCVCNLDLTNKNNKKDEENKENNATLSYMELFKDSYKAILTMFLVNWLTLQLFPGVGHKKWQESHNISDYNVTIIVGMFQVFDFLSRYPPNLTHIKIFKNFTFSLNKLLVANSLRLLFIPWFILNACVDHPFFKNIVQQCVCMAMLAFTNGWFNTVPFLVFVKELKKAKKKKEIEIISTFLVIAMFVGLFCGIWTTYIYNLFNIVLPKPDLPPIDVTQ
Summary of the method: as §1

PfCRT [4] = experiment: Potential co-substrates tested for influx of VF-6 via PfCRT into the oocyte; assay type: cell-based, Plasmodium falciparum; design: key: X: Compounds that have been tested as potential co-substrates but are not required for influx of VF-6 via PfCRT into the oocyte
PfCRT^Dd2 [5] = biological target: T1, PfCRT^Dd2; experiment: [3H]CQ uptake into Xenopus oocytes, cis-inhibition by unlabelled solute; assay type: cell-based; settings: PfCRTDd2 oocytes, background [3H]CQ accumulation subtracted, normalised to oocyte type control
Summary of the method: (§2)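 Oocytes expressing PfCRT isoforms, or non-expressing controls, were incubated 1.5 h at 27.5 °C in ND96 buffer pH 5.5 (96 mM NaCl, 2 mM KCl, 1 mM MgCl2, 1.8 mM CaCl2, 10 mM MES, 10 mM Tris-base), measuring uptake from acidic medium into cytosol. Oocytes were washed ice-cold, SDS-lysed and counted by scintillation.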

PfCRT^Ecu1110 [6] = biological target: T2, PfCRT^Ecu1110; experiment: as above; assay type: cell-based; settings: for Uptake of [3H]CQ (% PfCRTEcu1110 control), cis-inhibition / PfCRT-mediated [3H]CQ transport, cis-inhibition (% PfCRTEcu1110 control): PfCRTEcu1110 oocytes; for Uptake of [3H]CQ (% PfCRTEcu1110 control), cis-inhibition: total [3H]CQ transport, normalised to the oocyte type control; for PfCRT-mediated [3H]CQ transport, cis-inhibition (% PfCRTEcu1110 control): background [3H]CQ accumulation subtracted, normalised to oocyte type control; for [3H]CQ transport (% PfCRTEcu1110 control), cis-inhibition, PfCRTEcu1110: PfCRT-mediated component (background subtracted), sheet title says normalised to PfCRTDd2 control, mean ± SEM, SEM
Summary of the method: as §2

PfCRT^3D7 [7] = biological target: T3, PfCRT^3D7; experiment: cell-based; assay type: cell-based; settings: PfCRT3D7 oocytes, total [3H]CQ transport, normalised to the oocyte type control
Summary of the method: as §2

PfCRT [8] = experiment: Test of solutes as potential co-substrates for influx of VF-6 via PfCRT into the oocyte; assay type: cell-based, Plasmodium falciparum; design: key: X: Compounds that have been tested as potential co-substrates but are not required for influx of VF-6 via PfCRT into the oocyte; settings: X = tested
non-expressing oocytes [9] = assay type: cell-based, Xenopus laevis; settings: non-expressing oocytes, total [3H]CQ transport, normalised to the oocyte type control
Summary of the method: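 Oocytes (ten per treatment, ≥4 independent frogs/days) were preloaded by injecting VF-6 in 25 nL ND96 at pH 5.0, 5.5, 6.0 or 7.0, or Na^+-free choline buffer, then uptake run 1.5 h, 27.5 °C, ND96 pH 5.5 by default. Internal concentrations assumed ~400 nL oocyte volume.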

non-expressing oocytes [10] = experiment: cells; assay type: cell-based, Xenopus laevis; settings: non-expressing oocytes, total [3H]CQ transport, normalised to the oocyte type control
Summary of the method: as §2

[11] = [test solute]i = 5 mM (injected)
[12] = [test solute]i = 45 mM (30 mM for some solutes due to solubility)
[13] = [test solute]i = 5 mM (intracellular)
[14] = [test solute]i = 45 mM (intracellular; 30 mM for some solutes due to solubility)

For PVNF [PF-4], the “Uptake of [3H]CQ (% PfCRTDd2 control), trans-stimulation” value (PfCRT^Dd2 [1]; PfCRTDd2 oocytes, [test solute]i = 45 mM (30 mM for some solutes due to solubility), total [3H]CQ transport, normalised to the oocyte type control) was 115 ± 2.7 % PfCRTDd2 control, the “PfCRT-mediated [3H]CQ transport, trans-stimulation (% PfCRTDd2 control)” value (PfCRT^Dd2 [1]; [test solute]i = 5 mM (intracellular), PfCRTDd2 oocytes) was 99 ± 1.9 % PfCRTDd2 control and the “PfCRT-mediated [3H]CQ transport, trans-stimulation (% PfCRTDd2 control)” value (PfCRT^Dd2 [1]; [test solute]i = 45 mM (intracellular; 30 mM for some solutes due to solubility), PfCRTDd2 oocytes) was 112 ± 0.9 % PfCRTDd2 control. For the same substance, the “[3H]CQ transport (% PfCRTDd2 control), trans-stimulation, PfCRTDd2” value (PfCRT^Dd2 [1]; [11]) was 99 ± 1.9 % PfCRTDd2 control, the “[3H]CQ transport (% PfCRTDd2 control), trans-stimulation, PfCRTDd2” value (PfCRT^Dd2 [1]; [12]) was 112 ± 0.9 % PfCRTDd2 control and the “Uptake of [3H]CQ (% PfCRTEcu1110 control), trans-stimulation” value (PfCRT^Ecu1110 [2]; [test solute]i = 5 mM) was 120 ± 1.1 % PfCRTEcu1110 control. The “Uptake of [3H]CQ (% PfCRTEcu1110 control), trans-stimulation” value (PfCRT^Ecu1110 [2]; [12]) was 135 ± 1.4 % PfCRTEcu1110 control, the “PfCRT-mediated [3H]CQ transport, trans-stimulation (% PfCRTEcu1110 control)” value (PfCRT^Ecu1110 [2]; [13]) was 118 ± 0.3 % PfCRTEcu1110 control and the “PfCRT-mediated [3H]CQ transport, trans-stimulation (% PfCRTEcu1110 control)” value (PfCRT^Ecu1110 [2]; [14]) was 130 ± 3.2 % PfCRTEcu1110 control. The “[3H]CQ transport (% PfCRTDd2 control), trans-stimulation, PfCRTEcu1110” value (PfCRT^Ecu1110 [2]; [11]) was 36 ± 1.3 % PfCRTEcu1110 control, the “[3H]CQ transport (% PfCRTDd2 control), trans-stimulation, PfCRTEcu1110” value (PfCRT^Ecu1110 [2]; [12]) was 39 ± 1.7 % PfCRTEcu1110 control and the “Uptake of [3H]CQ (% PfCRT3D7 control), trans-stimulation” value (PfCRT^3D7 [3]; [test solute]i = 5 mM) was 138 ± 4.2 % PfCRT3D7 control. For the same substance, the “Uptake of [3H]CQ (% PfCRT3D7 control), trans-stimulation” value (PfCRT^3D7 [3]; [12]) was 163 ± 7.4 % PfCRT3D7 control, the “PfCRT-mediated [3H]CQ transport, trans-stimulation (% PfCRT3D7 control)” value (PfCRT^3D7 [3]; [13]) was 130 ± 3.2 % PfCRT3D7 control and the “PfCRT-mediated [3H]CQ transport, trans-stimulation (% PfCRT3D7 control)” value (PfCRT^3D7 [3]; [14]) was 157 ± 4.4 % PfCRT3D7 control. For the same substance, the “Uptake of [3H]CQ (% PfNT1 control), trans-stimulation” value (PfNT1; [test solute]i = 5 mM) was 99 ± 4.2 % PfNT1 control, the “Uptake of [3H]CQ (% PfNT1 control), trans-stimulation” value (PfNT1; [12]) was 100 ± 2.9 % PfNT1 control and the “Tested as potential co-substrate but not required for influx of VF-6 via PfCRT into the oocyte” value (PfCRT [4]) was “X”. The “PfCRT-mediated [3H]CQ transport, cis-inhibition (% PfCRTDd2 control)” value (PfCRT^Dd2 [5]; [test solute] = 0.5 mM) was 60 ± 3.3 % PfCRTDd2 control, the “PfCRT-mediated [3H]CQ transport, cis-inhibition (% PfCRTDd2 control)” value (PfCRT^Dd2 [5]; [test solute] = 1 mM) was 51 ± 0.3 % PfCRTDd2 control and the “PfCRT-mediated [3H]CQ transport, cis-inhibition (% PfCRTDd2 control)” value (PfCRT^Dd2 [5]; [test solute] = 2 mM) was 39 ± 2.1 % PfCRTDd2 control. The “Uptake of [3H]CQ (% PfCRTEcu1110 control), cis-inhibition” value (PfCRT^Ecu1110 [6]; [test solute] = 0.5 mM) was 65 ± 4.3 % PfCRTEcu1110 control, the “Uptake of [3H]CQ (% PfCRTEcu1110 control), cis-inhibition” value (PfCRT^Ecu1110 [6]; [test solute] = 1 mM) was 59 ± 3.3 % PfCRTEcu1110 control and the “Uptake of [3H]CQ (% PfCRTEcu1110 control), cis-inhibition” value (PfCRT^Ecu1110 [6]; [test solute] = 2 mM) was 41 ± 2.4 % PfCRTEcu1110 control. The “PfCRT-mediated [3H]CQ transport, cis-inhibition (% PfCRTEcu1110 control)” value (PfCRT^Ecu1110 [6]; [test solute] = 0.5 mM) was 61 ± 2.6 % PfCRTEcu1110 control, the “PfCRT-mediated [3H]CQ transport, cis-inhibition (% PfCRTEcu1110 control)” value (PfCRT^Ecu1110 [6]; [test solute] = 1 mM) was 51 ± 4.2 % PfCRTEcu1110 control and the “PfCRT-mediated [3H]CQ transport, cis-inhibition (% PfCRTEcu1110 control)” value (PfCRT^Ecu1110 [6]; [test solute] = 2 mM) was 37 ± 2.9 % PfCRTEcu1110 control. For the same substance, the “[3H]CQ transport (% PfCRTEcu1110 control), cis-inhibition, PfCRTEcu1110” value (PfCRT^Ecu1110 [6]; [test solute] = 1 mM) was 16 ± 0.2 % PfCRTEcu1110 control, the “[3H]CQ transport (% PfCRTEcu1110 control), cis-inhibition, PfCRTEcu1110” value (PfCRT^Ecu1110 [6]; [test solute] = 2 mM) was 12 ± 0.3 % PfCRTEcu1110 control and the “Uptake of [3H]CQ (% PfCRT3D7 control), cis-inhibition” value (PfCRT^3D7 [7]; [test solute] = 0.5 mM) was 99 ± 4.7 % PfCRT3D7 control. The “Uptake of [3H]CQ (% PfCRT3D7 control), cis-inhibition” value (PfCRT^3D7 [7]; [test solute] = 1 mM) was 100 ± 5.6 % PfCRT3D7 control, the “Uptake of [3H]CQ (% PfCRT3D7 control), cis-inhibition” value (PfCRT^3D7 [7]; [test solute] = 2 mM) was 101 ± 5.3 % PfCRT3D7 control and the “Tested as potential co-substrate but not required for influx of VF-6 via PfCRT into the oocyte” value (PfCRT [8]) was “X”. The “Uptake of [3H]CQ (% non-expressing oocyte control), trans-stimulation” value (non-expressing oocytes [9]; [test solute]i = 5 mM) was 99 ± 2.7 % non-expressing oocyte control, the “Uptake of [3H]CQ (% non-expressing oocyte control), trans-stimulation” value (non-expressing oocytes [9]; [12]) was 99 ± 3.4 % non-expressing oocyte control and the “Uptake of [3H]CQ (% non-expressing oocyte control), cis-inhibition” value (non-expressing oocytes [10]; [test solute] = 0.5 mM) was 98 ± 4.8 % non-expressing oocyte control. For the same substance, the “Uptake of [3H]CQ (% non-expressing oocyte control), cis-inhibition” value (non-expressing oocytes [10]; [test solute] = 1 mM) was 99 ± 2.6 % non-expressing oocyte control and the “Uptake of [3H]CQ (% non-expressing oocyte control), cis-inhibition” value (non-expressing oocytes [10]; [test solute] = 2 mM) was 98 ± 3.6 % non-expressing oocyte control.
